Here are results for 2 compounds from patent US20250188091A1, “PYRIDONE COMPOUND HAVING INTEGRASE INHIBITORY ACTIVITY AND PHARMACEUTICAL USE THEREOF” (priority 2021, published 2025).

Holding throughout (type): cell-based
The test system of data set [1] is human immunodeficiency virus type 1 IIIB strain (HIV-1IIIB). The experiment in a line: Cell protection assay against HIV infection (MT-4 cells, XTT). The conditions noted are these: for CC50/EC50: MT-4 cells, HIV-1IIIB. The protocol:
The protective effect of the test compound on MT-4 cells infected by human immunodeficiency virus type 1 IIIB strain (HIV-1IIIB) at different concentrations was evaluated.
The test compound was dissolved in DMSO at a concentration of 10 mM and stored at −20° C.
2) Test of the anti-HIV-1 IIIB infection activity of the compound: A starting concentration of 10 nM was used, and five serial five-fold dilutions were carried out on the compound. Each compound was present in the test medium at a concentration 2 folds of the final desired test concentration. 100 microliters (100 μL) of the solution of each concentration was added to triplicate wells for efficacy evaluation, and each concentration was added one well for colorimetric evaluation. AZT was purchased from Sigma Aldrich (St. Louis, MO, USA), and evaluated as a control compound in the antiviral assay.
Cell culture: MT-4 cells were passaged in a T-75 flask before use in the antiviral assay. On the day before the assay, cells were passaged in aliquots at a 1:2 ratio to ensure that they were in the exponential growth phase at the time of infection. Total cells and viable cells were quantified using a hemocytometer and trypan blue dye. The proportion of viable cells used for the assay was greater than 95%. The cells were resuspended in tissue culture medium at 5×10^4 cells per milliliter, and the resulting suspension was added to a drug-containing microtiter plate in a volume of 50 μL.
Virus preparation: The virus used for this assay was lymphotropic virus strain HIV-1IIIB. The viruses were amplified in CEM-SS cells for the preparation of virus stock solution. The pre-titered virus aliquot tube was taken from the refrigerator (−80° C.), and slowly thawed to room temperature in a biosafety cabinet. The viruses were diluted in the tissue culture medium. 50 μl of the diluted virus would produce 85% to 95% cell killing 6 days after infection. 50 μL of the diluted virus was added immediately to the microtiter plate containing cells and drugs.
Evaluation of the efficacy and toxicity of the compound with XTT: After culturing for six days in a 37° C., 5% CO2 incubator, tetrazolium dye XTT (2,3-bis(2-methoxy-4-nitro-5-sulfophenyl)-5-[(phenylamino)carbonyl]-2H-tetrazolium hydroxide) was added to the cell culture plate to conduct the test. The XTT solution was a 1 mg/ml RPMI1640 stock solution prepared on the same day. Phenazine methyl sulfate (PMS) solution at a concentration of 0.15 mg/ml was prepared in PBS, and stored in the dark at −20° C. XTT/PMS stock solution was prepared before use by adding 40 μl of PMS per milliliter of XTT solution. […] of XTT/PMS was added to each well of the plate, and the plate was re-incubated for 4 hours at 37° C. The plate was sealed with adhesive plate sealant, and gently shaked or inverted several times to mix the soluble formazan product. The absorbance was read at 450/650 nm.
(Tetrazolium assays rely on reduction of a dye to a coloured formazan, in cell work by metabolically active cells.)

Data set [2] concerns HIV-1 integrase E138K pseudovirus. The experiment in a line: Pseudovirus-based assay of anti-HIV-1 activity, E138K strain. As to conditions: HEK-293T, 72 h. The protocol:
(§1) The inhibitory activity against pseudoviruses containing common clinical mutation sites of HIV-1 integrase (G140S/Q148R, Q148R/N155H, E138K, Q148H, R263K and Y143R/Q148H) was determined.
(§2) Preparation of pseudovirus: Using the lentiviral plasmid pNL4-3-Luc-RE (HedgehogBio) as the backbone, an integrase point mutation plasmid was constructed. HEK293T cells (ATCC) were seeded in a 6-well plate at 5×10^5 cells per well. After 24 hours, when the cell density reached 60% to 80%, transfection was performed. pNL4-3-Luc-R-E- or pNL4-3-Luc-R-E--IN-mutant plasmid and lentivirus packaging plasmid pMD2.G (Beijing Zoman Bio) were added to the transfection reagent in a certain proportion. Cell transfection was performed according to the instructions of transfection reagent PEI25K (Maokang Biotechnology). After 48 hours, the supernatant was collected, centrifuged at 3000 rpm for 5 minutes, filtered with a 0.45 μm microporous membrane, aliquoted, and stored at −80° C. for later use. In HEK293T cells, the pseudovirus titer was determined based on luciferase activity.
(§3) Determination of antiviral activity of compounds: In a 96-well V-bottom plate, the compound to be tested was diluted with DMSO semi-logarithmically, and a compound solution 4 times the final concentration was prepared for later use. According to the results of different virus titrations, the virus was diluted with complete culture medium for later use. HEK293T cells were digested with trypsin to obtain a cell suspension of 2×10^5/mL. 50 µl of compound diluent, 50 µl of virus diluent and 100 µl of cell suspension were added successively to a 96-well flat-bottomed plate. The final concentration of the compound was 1000 nM to 0.1 nM. The 96-well plate was incubated in a 37° C., 5% CO2 incubator. After 72 hours, 100 µL of culture supernatant was pipetted out carefully from each well of the 96-well plate, 25 µL of Steady-Glo detection reagent (Promega, Cat #E2550) was added to each well in the dark, and then assayed on a machine (Tecan, Type #Spark).

Data set [3] deals with HIV-1 integrase Q148H pseudovirus. Kind of data set: Pseudovirus-based assay of anti-HIV-1 activity, Q148H strain. As to conditions: HEK-293T, 72 h. The method, then:
as §1, §2, §3

The test system of data set [4] is HIV-1 integrase Y143R/Q148H pseudovirus. Kind of data set: Pseudovirus-based assay of anti-HIV-1 activity, Y143R/Q148H strain. As to conditions: HEK-293T, 72 h. The method, then:
as §1, §2, §3

Data set [5] relates to HIV-1 integrase Q148R/N155H pseudovirus. The experiment in a line: Pseudovirus-based assay of anti-HIV-1 activity, Q148R/N155H strain. As to conditions: HEK-293T, 72 h. The protocol:
as §1, §2, §3

In data set [6] the test system is HIV-1 subtype A RW/92/009. The experiment in a line: Inhibitory activity against clinical HIV-1 strain RW/92/009 in PBMC. As to conditions: for EC50: read-out: hPBMC/HIV-1 EC50; for EC90: read-out: hPBMC/HIV-1 EC90. The method, then: (§4) Preparation of virus: Clinical HIV-1 virus strains (Table 3) were obtained from the US NIH AIDS Research and Reference Reagent Library. PBMC were extracted from three fresh blood samples that were HIV and HBV seronegative, mixed and cultured, and PHA-P (phytohemagglutinin) was added to stimulate activation. The cells and virus were incubated at 37° C./5% CO2, and the cell culture supernatant after infection was collected and stored frozen at −80° C. Each viral titer was titrated in pooled PBMCs from three donors.
(§5) Assay of antiviral activity of compounds: Frozen PBMCs were resuspended in fresh culture medium (1×10^6 cells/mL), and added to a round-bottom 96-well plate ([…]). 100 μl of culture medium containing 2 times the final concentration of the compound was added to each well, and then 50 μL of virus solution was added (the final infection dose was MOI=0.002). After 7 days of culture, the reverse transcriptase activity in the supernatant was determined to evaluate HIV-1 replication. At the same time, a 96-well culture plate with only compounds and cells was prepared for the assay of compound cytotoxicity.

Data set [7] concerns HIV-1 subtype C MW/93/959. The experiment in a line: Inhibitory activity against clinical HIV-1 strain MW/93/959 in PBMC. The conditions noted are these: for EC50: read-out: hPBMC/HIV-1 EC50; for EC90: read-out: hPBMC/HIV-1 EC90. The method, then:
as §4, §5

Where [8] appears, read: Human immunodeficiency virus 1, 168 h, RW/92/009, human PBMC, 7 days, reverse transcriptase activity in supernatant.
Setting [9] is: Human immunodeficiency virus 1, 168 h, MW/93/959, human PBMC, 7 days, reverse transcriptase activity in supernatant.
Setting [10] is: Human immunodeficiency virus 1, PBMC, 168 h.

Where two headings read alike, the source gives them in different places.

With `C[C@H]1CO[C@@H]2Cn3cc(C(=O)NCc4ccc(F)cc4F)c(=O)c(O)c3C(=O)N12` [Cabotegravir, cabotegravir], the EC50 turned out to be 2.4 nM in data set [1] (Human immunodeficiency virus 1, MT4, 144 h, MT-4 cells infected by HIV-1IIIB, 6 days, XTT, read-out: EC50); 3.7 nM in data set [2]; 3.6 nM in data set [3]; 4.2 nM in data set [4]; 98 nM in data set [5]; 0.09 nM in data set [6] (setting [8]). For the same compound, the EC50 in data set [7] (setting [9]) amounted to 0.06 nM. Further, in data set [1], the CC50/EC50 is over 41.7. For the same compound, the EC90 is 24.4 nM in data set [2]; 15.4 nM in data set [3]; 24.8 nM in data set [4]; over 1000 nM in data set [5]; 0.59 nM in data set [6] (setting [8]); 0.67 nM in data set [7] (setting [9]).
Take `O=C(NCc1ccc(F)cc1F)c1cn2c(c(O)c1=O)C(=O)N1[C@@H](CF)CO[C@@H]1C2` [Compound 2]: the EC50 is 0.89 nM in data set [1] (Human immunodeficiency virus 1, IIIB, MT4, 144 h); 2.3 nM in data set [2]; 2.2 nM in data set [3]; 3.1 nM in data set [4]; 82.3 nM in data set [5]; 0.02 nM in data set [6] (setting [10]). Also, in data set [7] (setting [10]), the EC50 stood at 0.007 nM. This compound also gave a CC50/EC50 in data set [1] of over 112. For the same compound, the EC90 in data set [2] is 14.1 nM; in data set [3] it was 12.5 nM; in data set [4], 14.1 nM; in data set [5] it was over 1000 nM; in data set [6] (setting [10]), 0.4 nM; in data set [7] (setting [10]) it was 0.37 nM.
